From patent US10407422B2, “Triazolopyridine inhibitors of myeloperoxidase” (priority 2015, dated 2019) come the findings set out here.

Assay [1] has as its target T1, myeloperoxidase (MPO) (Homo sapiens (Human), UniProt P05164). Kind of assay: MPO peroxidation assay (Amplex Red assay). The class given is biochemical. As to conditions: potency range class. A digest of the protocol:
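Human MPO at 200 pM with 40 nM H2O2 preincubated 10 min at room temperature with inhibitor in 100 mM KPi pH 7.4. Reaction started with Amplex Red mixture (200 μM Amplex Red, 10 mM H2O2); resorufin fluorescence (Ex 535, Em 590 nm) read kinetically for 15 min. IC50 fitted from slopes over 180-540 s.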

For assay [2], the target named is T1, myeloperoxidase (MPO). Nature of the assay: MPO chlorination assay (APF assay). The class given is biochemical. Particulars: potency range class. A digest of the protocol: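 Human MPO (200 pM) preincubated 10 min at room temperature with inhibitor and 120 mM NaCl in 100 mM KPi pH 7.4. Reaction started with APF plus 10 μM H2O2, and hypochlorite-generated fluorescein read kinetically (ex 485/em 535 nm) for 3 min. IC50 from linear-phase slopes fitted to a four-parameter equation.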

One may read the IC50 as the concentration that gives 50% inhibition.

T1 sequence (P05164 49-745): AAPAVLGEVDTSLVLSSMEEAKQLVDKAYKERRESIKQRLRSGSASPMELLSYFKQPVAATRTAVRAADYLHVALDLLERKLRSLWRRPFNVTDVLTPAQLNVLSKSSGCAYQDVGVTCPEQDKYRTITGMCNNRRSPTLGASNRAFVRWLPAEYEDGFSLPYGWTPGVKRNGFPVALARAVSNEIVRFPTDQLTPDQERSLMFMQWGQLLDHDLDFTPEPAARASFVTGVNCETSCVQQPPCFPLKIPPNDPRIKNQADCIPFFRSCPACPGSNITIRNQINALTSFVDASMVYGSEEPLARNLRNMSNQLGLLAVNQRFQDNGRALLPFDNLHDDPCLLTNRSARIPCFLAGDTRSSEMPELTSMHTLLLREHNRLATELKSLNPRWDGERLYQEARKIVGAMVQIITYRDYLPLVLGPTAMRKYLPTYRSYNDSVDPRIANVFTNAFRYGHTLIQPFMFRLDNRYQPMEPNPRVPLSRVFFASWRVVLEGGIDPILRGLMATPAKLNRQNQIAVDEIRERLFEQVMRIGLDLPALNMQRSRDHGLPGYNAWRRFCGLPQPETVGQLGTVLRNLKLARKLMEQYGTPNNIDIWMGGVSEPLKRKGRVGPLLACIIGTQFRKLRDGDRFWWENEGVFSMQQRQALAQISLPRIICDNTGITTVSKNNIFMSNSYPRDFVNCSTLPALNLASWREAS

On to `Nc1cc(Cc2cnn(Cc3ccc(C(=O)N4CCOCC4)cc3)c2)c2nn[nH]c2n1` [Example 96, 7-[(1-{[4-(Morpholine-4-carbonyl)phenyl]methyl}-1H-pyrazol-4-yl)methyl]-3H-[1,2,3]triazolo[4,5-b]pyridin-5-amine], for which the values for the IC50 against myeloperoxidase (MPO) [1] and at myeloperoxidase (MPO) [2] were 1 to 100 nM and 101 to 999 nM, respectively.
In the same order, the values of `Nc1cc(Cc2cnn(Cc3ccc(C(F)(F)F)cc3)c2)c2nn[nH]c2n1` [Example 103, 7-((1-(4-(Trifluoromethyl)benzyl)-1H-pyrazol-4-yl)methyl)-3H-[1,2,3]triazolo[4,5-b]pyridin-5-amine] are 101 to 999 nM and 101 to 999 nM.
With `Nc1cc(Cc2cnn(CCC3CCNCC3)c2)c2nn[nH]c2n1` [Example 183, 7-({1-[2-(Piperidin-4-yl)ethyl]-1H-pyrazol-4-yl}methyl)-3H-[1,2,3]triazolo[4,5-b]pyridin-5-amine], the IC50 at myeloperoxidase (MPO) [1] was 1 to 100 nM; against myeloperoxidase (MPO) [2], 101 to 999 nM.
For `Nc1cc(Cc2cnn(Cc3cccc(CN4CCNCC4)c3)c2)c2nn[nH]c2n1` [Example 182, 7-[(1-{[3-(Piperazin-1-ylmethyl)phenyl]methyl}-1H-pyrazol-4-yl)methyl]-3H-[1,2,3]triazolo[4,5-b]pyridin-5-amine] the same measures were 1 to 100 nM and 101 to 999 nM.
For `Nc1cc(Cn2ncc(-c3ccccc3)n2)c2nn[nH]c2n1` [Example 161, 7-[(4-Phenyl-2H-1,2,3-triazol-2-yl)methyl]-3H-[1,2,3]triazolo[4,5-b]pyridin-5-amine] the same measures were 101 to 999 nM and 1000 to 10000 nM.
For `Nc1cc(Cc2cnn(Cc3cccc(N4CCN[C@@H](COCc5ccccc5)C4)c3)c2)c2nn[nH]c2n1` [Example 220, 7-{[1-({3-[(3R)-3-[(Benzyloxy)methyl]piperazin-1-yl]phenyl}methyl)-1H-pyrazol-4-yl]methyl}-3H-[1,2,3]triazolo[4,5-b]pyridin-5-amine] the same measures were 101 to 999 nM and 1 to 100 nM.
As to `Cc1ccc([C@H]2CNC(=O)C2)cc1Cn1cc(Cc2cc(N)nc3[nH]nnc23)cn1` [Example 192, (4S)-4-(3-{[4-({5-Amino-3H-[1,2,3]triazolo[4,5-b]pyridin-7-yl}methyl)-1H-pyrazol-1-yl]methyl}-4-methylphenyl)pyrrolidin-2-one], the IC50 against myeloperoxidase (MPO) [1] and on myeloperoxidase (MPO) [2] was 101 to 999 nM throughout.
Consider `Nc1cc(Cc2cnn(Cc3ccccc3Cc3ccccc3)c2)c2nn[nH]c2n1` [Example 265, 7-({1-[(2-Benzylphenyl)methyl]-1H-pyrazol-4-yl}methyl)-3H-[1,2,3]triazolo[4,5-b]pyridin-5-amine], for which the IC50 against myeloperoxidase (MPO) [1] and on myeloperoxidase (MPO) [2] was 1 to 100 nM throughout.
On to `COc1ccc(CN2CCc3ccc(Cn4cc(Cc5cc(N)nc6[nH]nnc56)cn4)cc3C2=O)cc1` [Example 287, 7-{[4-({5-Amino-3H-[1,2,3]triazolo[4,5-b]pyridin-7-yl}methyl)-1H-pyrazol-1-yl]methyl}-2-[(4-methoxyphenyl)methyl]-1,2,3,4-tetrahydroisoquinolin-1-one], for which the IC50 was in the range of 1 to 100 nM on myeloperoxidase (MPO) [1] and 1000 to 10000 nM on myeloperoxidase (MPO) [2].
For `Nc1cc(Cc2cnn(Cc3ccc4c(c3)CCC[C@H]4N)c2)c2nn[nH]c2n1` [Example 269, 7-[(1-{[(5R)-5-Amino-5,6,7,8-tetrahydronaphthalen-2-yl]methyl}-1H-pyrazol-4-yl)methyl]-3H-[1,2,3]triazolo[4,5-b]pyridin-5-amine] the same measures were 1 to 100 nM and 1 to 100 nM.
In the same order, the values of `Nc1cc(Cc2cnn(Cc3ccc4cc(O)ccc4c3)c2)c2nn[nH]c2n1` [Example 68, 6-((4-((5-Amino-3H-[1,2,3]triazolo[4,5-b]pyridin-7-yl)methyl)-1H-pyrazol-1-yl)methyl)naphthalen-2-ol] are 1 to 100 nM and 101 to 999 nM.
For the compound `COc1ccc(Cn2cc(Cc3cc(N)nc4[nH]nnc34)cn2)cn1` [Example 149, 7-({1-[(6-Methoxypyridin-3-yl)methyl]-1H-pyrazol-4-yl}methyl)-3H-[1,2,3]triazolo[4,5-b]pyridin-5-amine], the IC50 at myeloperoxidase (MPO) [1] was in the range of 1 to 100 nM; against myeloperoxidase (MPO) [2], 101 to 999 nM.
On to `Nc1cc(Cc2cnn(Cc3cccc(C4CCCN4)c3)c2)c2nn[nH]c2n1` (centres unmarked) [Example 208, 7-[(1-{[3-(Pyrrolidin-2-yl)phenyl]methyl}-1H-pyrazol-4-yl)methyl]-3H-[1,2,3]triazolo[4,5-b]pyridin-5-amine], for which the IC50 on myeloperoxidase (MPO) [1] and against myeloperoxidase (MPO) [2] was 1 to 100 nM in each case.
Take `Nc1cc(Cc2cnn(Cc3cc(Cl)cc(-c4ccccc4)c3)c2)c2nn[nH]c2n1` [Example 276, 7-({1-[(3-Chloro-5-phenylphenyl)methyl]-1H-pyrazol-4-yl}methyl)-3H-[1,2,3]triazolo[4,5-b]pyridin-5-amine]: the IC50 against myeloperoxidase (MPO) [1] and at myeloperoxidase (MPO) [2] was 101 to 999 nM throughout.
With `Nc1cc(Cc2cnn(Cc3ccc(C(=O)NCc4ncn[nH]4)cc3)c2)c2nn[nH]c2n1` [Example 81, 4-{[4-({5-Amino-3H-[1,2,3]triazolo[4,5-b]pyridin-7-yl}methyl)-1H-pyrazol-1-yl]methyl}-N-(1H-1,2,4-triazol-5-ylmethyl)benzamide], the IC50 at myeloperoxidase (MPO) [1] was 1 to 100 nM; on myeloperoxidase (MPO) [2] it was 101 to 999 nM.
With `Nc1cc(Cc2cnn(Cc3cccc(OC(F)(F)F)c3)c2)c2nn[nH]c2n1` [Example 60, 7-((1-(3-(Trifluoromethoxy)benzyl)-1H-pyrazol-4-yl)methyl)-3H-[1,2,3]triazolo[4,5-b]pyridin-5-amine], the IC50 on myeloperoxidase (MPO) [1] and on myeloperoxidase (MPO) [2] was 1 to 100 nM each time.
With `CNc1nc2ccc(Cn3cc(Cc4cc(N)nc5[nH]nnc45)cn3)cc2s1` [Example 186, 6-{[4-({5-Amino-3H-[1,2,3]triazolo[4,5-b]pyridin-7-yl}methyl)-1H-pyrazol-1-yl]methyl}-N-methyl-1,3-benzothiazol-2-amine], the IC50 was 1 to 100 nM on myeloperoxidase (MPO) [1] and 101 to 999 nM against myeloperoxidase (MPO) [2].
Consider `N#Cc1cc(Br)cc(Cn2cc(Cc3cc(N)nc4[nH]nnc34)cn2)c1` [Example 275, 3-{[4-({5-Amino-3H-[1,2,3]triazolo[4,5-b]pyridin-7-yl}methyl)-1H-pyrazol-1-yl]methyl}-5-bromobenzonitrile], for which the IC50 at myeloperoxidase (MPO) [1] was 1 to 100 nM; against myeloperoxidase (MPO) [2], 101 to 999 nM.
On to `Nc1cc(Cc2cnn(Cc3cnn(-c4ccccn4)c3)c2)c2nn[nH]c2n1` [Example 115, 7-((1-((1-(Pyridin-2-yl)-1H-pyrazol-4-yl)methyl)-1H-pyrazol-4-yl)methyl)-3H-[1,2,3]triazolo[4,5-b]pyridin-5-amine], for which the figures for the IC50 against myeloperoxidase (MPO) [1] and against myeloperoxidase (MPO) [2] were 1 to 100 nM and 101 to 999 nM, respectively.
For `Nc1cc(Cc2cnn(-c3cccc(Cc4ccccc4)c3)c2)c2nn[nH]c2n1` [Example 21, 7-((1-(3-Benzylphenyl)-1H-pyrazol-4-yl)methyl)-3H-[1,2,3]triazolo[4,5-b]pyridin-5-amine] the same measures were 1 to 100 nM and 101 to 999 nM.
As to `Nc1cc(Cc2cnn(Cc3cccc(N4CCNCC4Cc4ccccc4)c3)c2)c2nn[nH]c2n1` (centres unmarked) [Example 227, 7-[(1-{[3-(2-Benzylpiperazin-1-yl)phenyl]methyl}-1H-pyrazol-4-yl)methyl]-3H-[1,2,3]triazolo[4,5-b]pyridin-5-amine], the IC50 on myeloperoxidase (MPO) [1] and on myeloperoxidase (MPO) [2] was 101 to 999 nM in each case.
Consider `N#Cc1cccc(-c2ccc(Cn3cc(Cc4cc(N)nc5[nH]nnc45)cn3)cc2)c1` [Example 154, 3-(4-{[4-({5-Amino-3H-[1,2,3]triazolo[4,5-b]pyridin-7-yl}methyl)-1H-pyrazol-1-yl]methyl}phenyl)benzonitrile], for which the IC50 against myeloperoxidase (MPO) [1] and on myeloperoxidase (MPO) [2] was 101 to 999 nM in each case.
Turning to `Nc1cc(Cc2cnn(-c3cccc(COc4ccccc4)c3)c2)c2nn[nH]c2n1` [Example 36, 7-((1-(3-(Phenoxymethyl)phenyl)-1H-pyrazol-4-yl)methyl)-3H-[1,2,3]triazolo[4,5-b]pyridin-5-amine], the results for the IC50 on myeloperoxidase (MPO) [1] and against myeloperoxidase (MPO) [2] were 1 to 100 nM and 101 to 999 nM, respectively.
In the same order, the values of `CC1C[C@@H](c2cccc(Cn3cc(Cc4cc(N)nc5[nH]nnc45)cn3)c2)CN1` (stereo partly drawn) [Example 202, 7-{[1-({3-[(3S)-5-Methylpyrrolidin-3-yl]phenyl}methyl)-1H-pyrazol-4-yl]methyl}-3H-[1,2,3]triazolo[4,5-b]pyridin-5-amine] are 1 to 100 nM and 1 to 100 nM.
Turning to `Cc1cc(-n2cc(Cc3cc(N)nc4[nH]nnc34)cn2)ccc1F` [Example 10, 7-((1-(4-Fluoro-3-methylphenyl)-1H-pyrazol-4-yl)methyl)-3H-[1,2,3]triazolo[4,5-b]pyridin-5-amine], the IC50 on myeloperoxidase (MPO) [1] fell in the range of 1 to 100 nM; on myeloperoxidase (MPO) [2], 101 to 999 nM.
In the case of `CN(C)CC(=O)NCc1ccc(Cn2cc(Cc3cc(N)nc4[nH]nnc34)cn2)cc1` [Example 251, N-[(4-{[4-({5-Amino-3H-[1,2,3]triazolo[4,5-b]pyridin-7-yl}methyl)-1H-pyrazol-1-yl]methyl}phenyl)methyl]-2-(dimethylamino)acetamide], the IC50 against myeloperoxidase (MPO) [1] lay in the range of 1 to 100 nM; at myeloperoxidase (MPO) [2], 101 to 999 nM.
For `Nc1cc(Cc2cnn(Cc3ccccc3OCc3ccccc3)c2)c2nn[nH]c2n1` [Example 263, 7-[(1-{[2-(Benzyloxy)phenyl]methyl}-1H-pyrazol-4-yl)methyl]-3H-[1,2,3]triazolo[4,5-b]pyridin-5-amine] the same measures were 1 to 100 nM and 101 to 999 nM.
Turning to `Nc1cc(Cc2cc(-c3ccccc3)no2)c2nn[nH]c2n1` [Example 48, 7-((3-Phenylisoxazol-5-yl)methyl)-3H-[1,2,3]triazolo[4,5-b]pyridin-5-amine], the IC50 at myeloperoxidase (MPO) [1] and against myeloperoxidase (MPO) [2] was 101 to 999 nM each time.
